Measurements published in patent US20260061027A1 (NeuroTher, LLC, priority 2024, published 2026).

Assay: In vitro metabolic stability of hepatocytes
Conditions: Mouse hepatocytes, 0.5 ×10^6 cells/mL

SMILES: O=c1ccc2ccc(O)cc2o1 [7-Hydroxycoumarin]
- T1/2: 3.0 min
